Results published in patent US6761898B1, “Combination composition in the form of nutritional supplement or pharmaceutical composition for the prevention and therapeutical treatment of degenerative or inflammatory articular disorders” (Sigma-Tau Industrie Farmaceutiche Riunite S.p.A., priority 1998, dated 2004).

Legend:
[1] = tested on: carragenin-induced oedema in the rat; assay: Carragenin oedema tests; assay type: in vivo; settings: for effect on severity of the carragenin-induced oedema: substance alone, 50, 100 and 200 mg/kg one hour prior to carragenin
Protocol: Carragenin oedema was induced in the rat by injection of 0.1 ml of a 1% carragenin solution (Sigma Chemical) in the subplantar region of the rat's right paw. The volume of the paw was measured by means of a mercury plethysmograph one hour later and over the 5-hour period following carragenin injection.
L-carnitine, glucosamine and chondroitin sulphate were administered one hour prior to carragenin injection, both alone and in combination at doses of 50, 100 and 200 mg/kg of these compounds.

[2] = tested on: Type II collagen arthritis in mice; assay: Type II collagen arthritis tests; assay type: in vivo; settings: injected from day one after collagen injection to end of sixth week, L-carnitine 50 and 100 mg/kg, glucosamine 100 and 200 mg/kg, chondroitin sulphate 50 and 100 mg/kg
Protocol: Type II collagen arthritis was induced in mice according to the technique described by Trentham (Trentham D. R., Townes A. S., Kang A. H., J. Exp. Med., 146, 857, 1977). One group of mice was immunised by means of intradermal injections of natural collagen emulsified in complete Freund's adjuvant (Difco Labs., Detroit, U.S.A.) at the base of the tail. Three weeks later these animals were re-injected intraperitoneally with the same dose of emulsified collagen. L-carnitine (50 mg/kg and 100 mg/kg), glucosamine (100 mg/kg and 200 mg/kg) and chondroitin sulphate (50 mg/kg and 100 mg/kg) were injected alone or in combination from day one after the collagen injection up to the end of the sixth week. One group of animals (control) received no treatment. The assessment of the severity of the oedema was done according to its intensity with scores ranging from 1 to 4. […] When L-carnitine was combined with either glucosamine or with chondroitin sulphate an approximately 50% reduction of arthrosis was obtained.

[3] = dose 100 mg/kg (each substance), 2 hours
[4] = dose 100 mg/kg (each substance), 3 hours
[5] = dose 100 mg/kg (each substance), 4 hours
[6] = dose 200 mg/kg (each substance), 1 hour
[7] = dose 200 mg/kg (each substance), 2 hours
[8] = dose 200 mg/kg (each substance), 3 hours
[9] = dose 200 mg/kg (each substance), 4 hours

Compound	% Reduction of oedema at various hours after carragenin injection [1, 3] [%]	% Reduction of oedema at various hours after carragenin injection [1, 4] [%]	% Reduction of oedema at various hours after carragenin injection [1, 5] [%]	% Reduction of oedema at various hours after carragenin injection [1, 6] [%]	% Reduction of oedema at various hours after carragenin injection [1, 7] [%]	% Reduction of oedema at various hours after carragenin injection [1, 8] [%]	% Reduction of oedema at various hours after carragenin injection [1, 9] [%]	effect on severity of the carragenin-induced oedema [1]	inhibitory effect on the development of the typical signs of arthritis [2]	% Reduction of oedema at various hours after carragenin injection ([1]; dose 100 mg/kg (each substance), 1 hour) [%]
N[C@H]1C(O)O[C@H](CO)[C@@H](O)[C@@H]1O (some centres unmarked) [Glucosamine, glucosamine]	5 ± 0.3	5 ± 0.5	5 ± 0.6	5 ± 0.2	10 ± 0.9	10 ± 1.1	5 ± 0.5	failed to modify the severity	neither L-carnitine, glucosamine nor chondroitin sulphate when administered alone had any inhibitory effect	–
C[N+](C)(C)C[C@H](O)CC(=O)[O-] [L-carnitine]	–	–	–	–	10 ± 0.2	5 ± 0.3	–	failed to modify the severity	neither L-carnitine, glucosamine nor chondroitin sulphate when administered alone had any inhibitory effect	–
chondroitin sulphate	10 ± 0.8	5 ± 0.4	5 ± 0.1	10 ± 1.9	15 ± 1.1	20 ± 1.8	10 ± 1.2	failed to modify the severity	neither L-carnitine, glucosamine nor chondroitin sulphate when administered alone had any inhibitory effect	10 ± 0.3
